Reference: PMC7827406, “Structure–Activity Relationship (SAR) Study of Spautin-1 to Entail the Discovery of Novel NEK4 Inhibitors” (International Journal of Molecular Sciences, 2021)
Read-outs that look alike come from different tables or passages of the source.

Columns and labels:
Assay in all cases: biochemical
Set-up in all cases: Eurofins KinaseProfiler full panel at Km ATP, residual kinase activity (%) relative to DMSO
[1] = molecular target: CDK2/cyclinA(h) (Homo sapiens, UniProt P24941)
Procedure, shortened: (§1)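 Radiometric kinase activity assays were run with ATP at Km and compounds at 10 µM, and remaining activity (%) was reported. A separate competitive binding screen measured DNA-tagged kinase displaced from immobilized active-site ligands by qPCR, giving percent kinase still bound at 10 µM compound in DMSO.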

[2] = molecular target: LIMK2(h) (Homo sapiens, UniProt P53671)
Procedure, shortened: as §1

[3] = molecular target: T1, Bmx(h) (Homo sapiens, UniProt P51813)
T1 sequence (P51813 1-675): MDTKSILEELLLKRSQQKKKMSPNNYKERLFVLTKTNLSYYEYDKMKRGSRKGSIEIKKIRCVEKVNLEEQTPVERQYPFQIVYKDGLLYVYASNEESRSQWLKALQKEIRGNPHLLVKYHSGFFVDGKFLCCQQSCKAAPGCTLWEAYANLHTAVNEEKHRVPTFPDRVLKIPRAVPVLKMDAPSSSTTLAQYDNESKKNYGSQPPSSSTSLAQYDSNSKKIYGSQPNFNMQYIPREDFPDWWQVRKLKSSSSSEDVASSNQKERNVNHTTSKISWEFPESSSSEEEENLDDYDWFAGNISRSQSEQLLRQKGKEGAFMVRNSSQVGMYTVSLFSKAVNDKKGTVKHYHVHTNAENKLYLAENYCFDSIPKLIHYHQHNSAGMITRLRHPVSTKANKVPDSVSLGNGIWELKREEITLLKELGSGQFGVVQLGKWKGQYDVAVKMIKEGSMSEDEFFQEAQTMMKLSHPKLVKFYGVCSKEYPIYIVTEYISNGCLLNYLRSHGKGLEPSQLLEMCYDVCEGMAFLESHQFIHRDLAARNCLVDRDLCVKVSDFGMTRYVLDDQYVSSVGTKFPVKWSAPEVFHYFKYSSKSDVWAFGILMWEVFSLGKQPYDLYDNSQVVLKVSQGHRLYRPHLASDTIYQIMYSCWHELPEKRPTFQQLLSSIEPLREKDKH
Procedure, shortened: as §1

[4] = molecular target: T2, PI3 Kinase (p110a/p85a)(m) (Mus musculus, UniProt P42337)
T2 construct: gene Pik3ca
Procedure, shortened: as §1

[5] = molecular target: T3, PDHK4(h) (Homo sapiens, UniProt Q16654)
T3 construct: gene PDK4
Procedure, shortened: as §1

[6] = molecular target: EGFR(T790M)(h) (Homo sapiens, UniProt P00533, T790M)
Procedure, shortened: as §1

[7] = molecular target: T4, FAK(h) (Homo sapiens, UniProt Q05397)
T4 construct: gene PTK2
Procedure, shortened: as §1

[8] = molecular target: Lyn(m) (Mus musculus, UniProt P25911)
Procedure, shortened: as §1

[9] = molecular target: Fes(h) (Homo sapiens, UniProt P07332)
Procedure, shortened: as §1

[10] = molecular target: T5, PKAcβ(h) (Homo sapiens, UniProt P22694)
T5 construct: gene PRKACB
Procedure, shortened: as §1

[11] = molecular target: VRK2(h) (Homo sapiens, UniProt Q86Y07)
Procedure, shortened: as §1

[12] = molecular target: CDK4/cyclinD3(h) (Homo sapiens, UniProt P11802)
Procedure, shortened: as §1

[13] = read-out: Residual activity (%) Spautin-1 5aa
[14] = read-out: Residual activity (%) 5as
[15] = read-out: Residual activity (%) 5at
[16] = read-out: Residual activity (%) 5ay

T2 sequence (P42337 whole entry): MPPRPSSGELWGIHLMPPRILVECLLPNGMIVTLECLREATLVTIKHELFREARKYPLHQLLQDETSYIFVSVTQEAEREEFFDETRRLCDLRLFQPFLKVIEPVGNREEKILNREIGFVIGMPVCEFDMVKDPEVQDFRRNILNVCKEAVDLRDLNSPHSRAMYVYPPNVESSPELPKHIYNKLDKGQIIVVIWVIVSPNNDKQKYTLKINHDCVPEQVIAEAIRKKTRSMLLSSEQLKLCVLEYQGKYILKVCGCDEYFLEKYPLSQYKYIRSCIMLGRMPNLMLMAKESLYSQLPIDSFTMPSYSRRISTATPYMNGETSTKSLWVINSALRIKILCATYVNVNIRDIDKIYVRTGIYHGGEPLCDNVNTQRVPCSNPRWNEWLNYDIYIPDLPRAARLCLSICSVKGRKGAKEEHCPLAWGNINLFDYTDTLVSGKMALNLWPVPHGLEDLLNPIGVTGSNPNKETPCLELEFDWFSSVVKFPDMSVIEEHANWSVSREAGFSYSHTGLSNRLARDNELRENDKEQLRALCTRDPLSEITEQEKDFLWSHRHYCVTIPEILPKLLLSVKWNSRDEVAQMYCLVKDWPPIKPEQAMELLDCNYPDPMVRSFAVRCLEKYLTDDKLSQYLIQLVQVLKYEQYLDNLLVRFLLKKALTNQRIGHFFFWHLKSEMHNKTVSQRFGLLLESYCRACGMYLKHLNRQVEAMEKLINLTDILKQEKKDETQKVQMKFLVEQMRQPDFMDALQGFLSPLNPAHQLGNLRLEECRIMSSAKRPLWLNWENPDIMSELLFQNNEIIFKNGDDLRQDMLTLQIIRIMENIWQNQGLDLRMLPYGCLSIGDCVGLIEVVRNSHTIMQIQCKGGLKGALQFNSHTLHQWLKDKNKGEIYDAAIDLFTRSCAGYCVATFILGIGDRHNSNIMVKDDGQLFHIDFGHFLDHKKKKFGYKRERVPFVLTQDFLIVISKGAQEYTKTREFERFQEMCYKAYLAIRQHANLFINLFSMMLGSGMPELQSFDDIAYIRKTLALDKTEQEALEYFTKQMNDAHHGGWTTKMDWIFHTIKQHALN
T2 sequence (P26450 whole entry partner): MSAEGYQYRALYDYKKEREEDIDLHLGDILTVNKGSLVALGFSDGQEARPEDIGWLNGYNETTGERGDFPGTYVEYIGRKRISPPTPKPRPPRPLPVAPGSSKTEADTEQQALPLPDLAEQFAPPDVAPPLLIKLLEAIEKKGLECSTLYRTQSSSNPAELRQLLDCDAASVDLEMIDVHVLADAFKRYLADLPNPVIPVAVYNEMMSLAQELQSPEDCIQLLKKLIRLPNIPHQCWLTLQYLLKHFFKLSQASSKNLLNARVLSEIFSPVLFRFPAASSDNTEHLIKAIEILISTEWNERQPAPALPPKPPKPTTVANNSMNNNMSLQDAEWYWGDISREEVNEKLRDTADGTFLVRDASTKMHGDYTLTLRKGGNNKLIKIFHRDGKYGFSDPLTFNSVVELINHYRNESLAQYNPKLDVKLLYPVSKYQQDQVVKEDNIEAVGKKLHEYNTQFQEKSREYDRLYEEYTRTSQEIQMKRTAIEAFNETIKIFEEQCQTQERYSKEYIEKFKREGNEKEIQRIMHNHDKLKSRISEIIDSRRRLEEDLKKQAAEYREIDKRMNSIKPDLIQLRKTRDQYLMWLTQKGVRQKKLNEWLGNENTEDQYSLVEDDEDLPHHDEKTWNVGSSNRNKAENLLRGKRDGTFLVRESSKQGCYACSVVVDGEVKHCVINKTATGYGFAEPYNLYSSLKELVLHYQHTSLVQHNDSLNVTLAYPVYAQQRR
Fes(h), sequence (P07332 whole entry): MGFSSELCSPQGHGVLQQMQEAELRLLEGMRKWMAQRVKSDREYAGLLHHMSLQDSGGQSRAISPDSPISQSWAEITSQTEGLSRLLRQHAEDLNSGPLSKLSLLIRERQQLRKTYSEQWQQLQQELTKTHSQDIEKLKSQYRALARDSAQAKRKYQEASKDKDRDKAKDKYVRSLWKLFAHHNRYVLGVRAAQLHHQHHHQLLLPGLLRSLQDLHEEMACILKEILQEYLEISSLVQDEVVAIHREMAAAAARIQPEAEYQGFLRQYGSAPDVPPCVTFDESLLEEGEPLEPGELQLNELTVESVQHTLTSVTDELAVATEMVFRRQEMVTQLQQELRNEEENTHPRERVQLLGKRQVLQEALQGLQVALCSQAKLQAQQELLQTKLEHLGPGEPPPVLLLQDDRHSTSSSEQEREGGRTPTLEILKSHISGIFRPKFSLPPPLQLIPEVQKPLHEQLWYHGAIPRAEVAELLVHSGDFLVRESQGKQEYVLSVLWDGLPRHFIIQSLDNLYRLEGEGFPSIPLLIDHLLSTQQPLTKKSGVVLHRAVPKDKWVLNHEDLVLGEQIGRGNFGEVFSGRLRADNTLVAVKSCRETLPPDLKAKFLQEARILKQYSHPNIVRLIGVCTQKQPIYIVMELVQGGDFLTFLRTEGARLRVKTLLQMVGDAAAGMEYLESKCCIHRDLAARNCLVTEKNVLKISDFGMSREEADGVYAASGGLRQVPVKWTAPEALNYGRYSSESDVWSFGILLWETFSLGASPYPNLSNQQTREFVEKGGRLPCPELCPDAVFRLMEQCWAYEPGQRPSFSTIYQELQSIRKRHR
VRK2(h), sequence (Q86Y07 whole entry): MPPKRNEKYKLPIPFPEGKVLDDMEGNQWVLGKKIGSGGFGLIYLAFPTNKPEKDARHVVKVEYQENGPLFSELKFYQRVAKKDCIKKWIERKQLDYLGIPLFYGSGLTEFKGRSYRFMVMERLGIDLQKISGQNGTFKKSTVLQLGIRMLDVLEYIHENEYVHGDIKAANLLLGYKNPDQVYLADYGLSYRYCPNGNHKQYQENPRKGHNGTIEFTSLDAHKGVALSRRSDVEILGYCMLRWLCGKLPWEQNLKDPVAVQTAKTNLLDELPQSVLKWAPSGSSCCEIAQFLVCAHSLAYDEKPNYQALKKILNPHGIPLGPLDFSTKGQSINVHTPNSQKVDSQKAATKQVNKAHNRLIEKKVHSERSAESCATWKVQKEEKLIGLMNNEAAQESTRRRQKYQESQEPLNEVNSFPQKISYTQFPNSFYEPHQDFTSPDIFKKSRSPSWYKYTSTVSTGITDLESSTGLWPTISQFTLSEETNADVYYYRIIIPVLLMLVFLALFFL
T4 sequence (Q05397 whole entry): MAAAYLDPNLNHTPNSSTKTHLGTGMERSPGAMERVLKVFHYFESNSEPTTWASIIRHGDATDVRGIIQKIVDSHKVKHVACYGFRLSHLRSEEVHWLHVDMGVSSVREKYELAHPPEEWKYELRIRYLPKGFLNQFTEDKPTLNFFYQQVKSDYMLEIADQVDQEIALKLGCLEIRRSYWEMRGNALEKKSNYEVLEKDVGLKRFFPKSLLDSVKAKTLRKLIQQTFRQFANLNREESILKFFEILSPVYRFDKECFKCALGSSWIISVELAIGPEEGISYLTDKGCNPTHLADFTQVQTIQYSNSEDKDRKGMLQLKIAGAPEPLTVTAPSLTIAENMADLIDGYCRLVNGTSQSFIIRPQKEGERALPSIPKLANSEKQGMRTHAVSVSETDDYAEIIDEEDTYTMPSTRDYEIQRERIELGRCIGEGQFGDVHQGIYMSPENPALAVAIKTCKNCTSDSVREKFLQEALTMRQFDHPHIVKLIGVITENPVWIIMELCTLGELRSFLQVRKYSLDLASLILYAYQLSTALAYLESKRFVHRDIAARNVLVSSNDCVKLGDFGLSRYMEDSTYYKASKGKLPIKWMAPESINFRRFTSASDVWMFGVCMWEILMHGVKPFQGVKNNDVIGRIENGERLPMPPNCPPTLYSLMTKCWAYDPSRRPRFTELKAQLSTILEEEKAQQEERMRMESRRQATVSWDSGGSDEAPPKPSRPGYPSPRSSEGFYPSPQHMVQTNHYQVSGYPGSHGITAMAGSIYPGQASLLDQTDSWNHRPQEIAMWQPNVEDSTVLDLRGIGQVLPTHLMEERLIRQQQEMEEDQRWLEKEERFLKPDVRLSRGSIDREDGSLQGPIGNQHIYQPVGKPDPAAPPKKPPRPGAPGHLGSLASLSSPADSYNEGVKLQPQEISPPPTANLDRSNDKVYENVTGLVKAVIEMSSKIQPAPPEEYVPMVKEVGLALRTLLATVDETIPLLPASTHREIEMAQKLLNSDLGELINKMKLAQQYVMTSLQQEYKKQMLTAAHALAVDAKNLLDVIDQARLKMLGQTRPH
LIMK2(h), sequence (P53671 whole entry): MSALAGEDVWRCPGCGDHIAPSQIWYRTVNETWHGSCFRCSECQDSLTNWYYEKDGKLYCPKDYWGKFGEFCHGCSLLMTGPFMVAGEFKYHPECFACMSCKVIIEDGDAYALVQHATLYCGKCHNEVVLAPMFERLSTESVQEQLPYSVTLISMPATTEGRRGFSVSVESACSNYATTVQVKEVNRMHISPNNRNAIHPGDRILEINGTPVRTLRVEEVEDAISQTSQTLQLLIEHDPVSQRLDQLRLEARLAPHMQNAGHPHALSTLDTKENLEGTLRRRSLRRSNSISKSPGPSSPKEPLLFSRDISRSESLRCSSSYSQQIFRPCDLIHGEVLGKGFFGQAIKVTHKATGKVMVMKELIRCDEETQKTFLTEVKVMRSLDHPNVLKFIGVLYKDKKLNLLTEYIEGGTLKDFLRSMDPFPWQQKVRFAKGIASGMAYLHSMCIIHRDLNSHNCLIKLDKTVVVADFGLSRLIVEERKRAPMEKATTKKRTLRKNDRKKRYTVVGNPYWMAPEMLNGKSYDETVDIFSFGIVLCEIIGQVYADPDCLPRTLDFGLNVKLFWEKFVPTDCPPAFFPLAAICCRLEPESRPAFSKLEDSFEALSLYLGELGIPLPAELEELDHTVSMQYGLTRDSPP

Molecule Fc1ccc(CNc2ncnc3ccc(F)cc23)cc1 [5aa, 6-Fluoro-N-(4-fluorobenzyl)-4-Quinazolinamine] has a remaining activity at 10 µM [1, 13] of 95%, a remaining activity at 10 µM [2, 13] of 94% and a remaining activity at 10 µM [3, 13] of 79%. It also gave a remaining activity at 10 µM [4, 13] of 86%, a remaining activity at 10 µM [5, 13] of 106% and a remaining activity at 10 µM [6, 13] of 90%. It also gave a remaining activity at 10 µM [7, 13] of 84%, a remaining activity at 10 µM [8, 13] of 81% and a remaining activity at 10 µM [9, 13] of 91%. It also gave a remaining activity at 10 µM [10, 13] of 87%, a remaining activity at 10 µM [11, 13] of 91% and a remaining activity at 10 µM [12, 13] of 101%.

For Fc1ccc(CCNc2ncnc3ccc(F)cc23)cc1 [5as, 6-Fluoro-N-[2-(4-Fluorophenyl)Ethyl]-4-Quinazolinamine], the remaining activity at 10 µM [1, 14] was 82%, the remaining activity at 10 µM [2, 14] was 87% and the remaining activity at 10 µM [3, 14] was 78%. It also gave a remaining activity at 10 µM [4, 14] of 83%, a remaining activity at 10 µM [5, 14] of 102% and a remaining activity at 10 µM [6, 14] of 87%. It also gave a remaining activity at 10 µM [7, 14] of 88%, a remaining activity at 10 µM [8, 14] of 91% and a remaining activity at 10 µM [9, 14] of 92%. The remaining activity at 10 µM [10, 14] was 97%, the remaining activity at 10 µM [11, 14] was 99% and the remaining activity at 10 µM [12, 14] was 97%.

For Fc1ccc2ncnc(NCCc3ccc(Cl)cc3)c2c1 [5at, N-[2-(4-Chlorophenyl)Ethyl]-6-Fluoro-4-Quinazolinamine], the remaining activity at 10 µM [1, 15] was 86%, the remaining activity at 10 µM [2, 15] was 84% and the remaining activity at 10 µM [3, 15] was 78%. For the same molecule, the remaining activity at 10 µM [4, 15] was 82%, the remaining activity at 10 µM [5, 15] was 101% and the remaining activity at 10 µM [6, 15] was 74%. It also gave a remaining activity at 10 µM [7, 15] of 83%, a remaining activity at 10 µM [8, 15] of 77% and a remaining activity at 10 µM [9, 15] of 81%. For the same molecule, the remaining activity at 10 µM [10, 15] was 107%, the remaining activity at 10 µM [11, 15] was 94% and the remaining activity at 10 µM [12, 15] was 95%.

COc1ccc2ncnc(Nc3cccc(F)c3)c2c1 [5ay, N-(3-Fluorophenyl)-6-Methoxy-4-Quinazolinamine] gave a remaining activity at 10 µM [1, 16] of 83%, a remaining activity at 10 µM [2, 16] of 103% and a remaining activity at 10 µM [3, 16] of 77%. The remaining activity at 10 µM [4, 16] was 84%, the remaining activity at 10 µM [5, 16] was 104% and the remaining activity at 10 µM [6, 16] was 65%. For the same molecule, the remaining activity at 10 µM [7, 16] was 84%, the remaining activity at 10 µM [8, 16] was 93% and the remaining activity at 10 µM [9, 16] was 93%. For the same molecule, the remaining activity at 10 µM [10, 16] was 85%, the remaining activity at 10 µM [11, 16] was 88% and the remaining activity at 10 µM [12, 16] was 100%.
